The subject of one assay is Nt.CviPII-Protein A. The assay is described as follows: Inhibition of the nicking activity of Nt.CviPII-Protein A fusion by heparin sodium salt. Type of assay: biochemical. Conditions: 2.5 units Nt.CviPII-Protein A, 0.5 μg pUC19 DNA, NEBuffer 2, 40 minutes 37° C. The method, then:
In lanes 1-9, 2.5 units of NEFP was added to 0.5 μgs of plasmid DNA in the presence of increasing amounts of heparin (0.15-10 mg/ml). Digestion was not observed when 0.3 mg heparin/ml or greater amounts are present.
To determine the effect of heparin sodium salt on the inhibition of nicking activities of Nt.CviPII-Protein A fusion, reaction tubes containing 10, 5, 2.5, 1.25, 0.62, 0.31, 0.15, and 0 mg/ml heparin, sodium salt were added to a 50 μl reaction, consisting of 5 μl 10×NEBuffer 2, 2.5 units Nt.CviPII-Protein A (as described in Example 1(B)), and 0.5 μg pUC19 DNA and incubated for 40 minutes 37° C. 10 μl of DNA loading dye mix (5×) was added to the samples and were resolved on a 10% polyacrylamide gel. The gel was stained with SYBR® Green (Molecular Probes, Eugene, Oreg.) and scanned on a Typhoon® imager (GE Healthcare Bio-Sciences, Marlborough, Mass.).

Assay [1] deals with DNA-Nt.CviPII-Protein A complex. Put plainly: Gel-shift assay: dissociation of the DNA-Nt.CviPII-Protein A complex by heparin. The settings on record: 3.2 μM Nt.CviPII-Protein A, NEBuffer 2 without magnesium, 50 μl. Type of assay: binding. The method, then: Increasing amounts of heparin disrupts complex formation. Nicking activity is prevented by the absence of magnesium ions in the buffer.
From left to right: C is a control that is DNA in the absence of a NEFP or heparin. 0 is a control in which nicking endonuclease was added to DNA in the absence of heparin. The DNA-NEFP complex (DNA-Nt.CviPII-Protein A complex) is seen as a band at the top of the lane.
To establish that the inhibitory effect of heparin, sodium salt in untethered Nt.CviPII-Protein A fusion activity was due to selective dissociation between DNA substrate and fusion enzyme, a gel-shift assay was performed. Double stranded DNA substrate containing constant amounts of Nt.CviPII binding domains (CCA, 5′[…]-F, F=fluorescein (SEQ ID NO:9)) and 3.2 μM Nt.CviPII-Protein A fusion were combined in the presence of 1×NEBuffer 2 in the absence of magnesium for 30 minutes at room temperature to enable an enzyme-substrate complex to be formed. Increasing amounts of heparin, sodium salt (0, 2.3, 4.6, 1, 20, 42, 83, 166, 330 μg/ml) was added to the total 50 μl reaction volume. It was observed that a heparin concentration of greater than 0.2 mgs/ml (at least […]) enabled complete dissociation of the DNA-Nt.CviPII-Protein A complex as observed by the appearance of bands corresponding to DNA alone in a native 6% retardation gel (Thermo Fisher Scientific, Waltham, Mass.). […]

In assay [2] the test system is antibody-Protein A/G complex. Put plainly: Effect of heparin on the antibody-Protein A/G complex (magnetic beads, SDS gel). Conditions: 0.125, 0.25, 0.5 and 1 mg/ml Heparin, 30 minutes, room temperature, Protein A/G magnetic beads with IgG, sodium salt. Type of assay: binding. An excerpt:
The numbers on the top indicate added heparin quantity in the reaction mgs/ml.
Antibody heavy and light chains that are bound to Protein A/G can be released by boiling and resolved on an SDS gel (B). Any antibody that was free in solution having been eluted or displaced by heparin from Protein A/G could be visualized without boiling (E).
To determine the effect of heparin on the formation of the antibody-Protein A/G complex, 5 mgs of immobilized and covalently cross-linked protein A/G magnetic beads were bound to 50 μgs of IgG molecules in a 50 μl reaction volume containing 1×PBST at room temperature for 30 minutes. The complex was washed 3 times using 1 ml of 1×PBST and incubated with 0.125, 0.25, 0.5 and 1 mg/ml Heparin for 30 minutes at room temperature in 25 μl total volume. The bead-bound (B) and unbound or bead elution (E) fractions were collected, SDS sample buffer (New England Biolabs, Ipswich, Mass.) was added and the samples were incubated at 95° C. for 5 minutes. Both B and E samples were resolved on tricine 10% acrylamide gel and stained for protein.

The test system of assay [3] is pBR322 circular double stranded DNA. The assay is described as follows: Nicking activity of Protein G/A-gHNH fusion on plasmid DNA (agarose gel). In kind it is biochemical. The settings on record: 50 μl, 37° C., 1 hour; for amount of fusion enzyme giving complete nicking/digestion of DNA substrate: 1 μg pBR322, NEBuffer 2 with manganese ions (1 mM) instead of magnesium. How it is done:
The nicking activity of Protein G-HNH was compared to a second non-fused nicking endonuclease (Nt.CviPII) (2 units) in the same gel to determine a generalized and consistent cleavage profile and was also compared to a control in the lane labeled 0 containing no nicking endonuclease either fused or unfused.
Protein G/A-gHNH fusion nicking activity was tested on pBR322 circular double stranded DNA using NEBuffer 2 in which magnesium ions were replaced by the same amount of manganese ions (1 mM). 1 μg of plasmid was used with 0.03 to 2 units of Protein G/A-gHNH fusion enzyme in a two-fold serial dilutions (2, 1, 0.5, 0.25, 0.125, 0.06, 0.03 units) in a total volume of 50 μl incubated at 37° C. for 1 hour. 10 μl of DNA loading dye mix (5×) was added to the nicked DNA. The nicked DNA samples were resolved on a 1% agarose gel and visualized under UV light. DNA fragment size was estimated along with 2 log DNA ladder (New England Biolabs, Ipswich, Mass.) and positive control Nt.CviPII (2 units) of the non-fused nicking endonuclease, (New England Biolabs, Ipswich, Mass.) digested pBR322 DNA (FIG. 1B). […] A representative figure supporting this conclusion is provided in FIG. 1B for Protein G-gHNH fusions.

The values that follow come from patent US20230123635A1, “Compositions and Methods for Detecting Molecular Targets on Chromosomal DNA” (New England Biolabs, Inc., priority 2020, published 2023).

A value given as a limit tells only on which side of the number the result lay.

For the molecule heparin, sodium salt, the “heparin concentration giving total inhibition of nicking (no digestion observed)” value is ≥ 0.3 mg/mL with Nt.CviPII-Protein A and 0.15 to 0.31 mg/mL with Nt.CviPII-Protein A (listed as Heparin sodium salt). For the same molecule, the “heparin concentration enabling complete dissociation of the DNA-Nt.CviPII-Protein A complex (parenthesis)” value in assay [1] is recorded as “at least 10 ng/μl”. In addition, the “heparin concentration enabling complete dissociation of the DNA-Nt.CviPII-Protein A complex” value in assay [1] (native 6% retardation gel) is reported as “greater than 0.2 mgs/ml”. The “effect of heparin on antibody bound to Protein A/G” value in assay [2] (listed as Heparin) is recorded as “cannot dissociate Protein A/G-antibody reaction”; in assay [2], “no elution or displacement of antibody occurred”.

B1: Protein G-gHNH: NEFP: Protein G-linker-gHNH nicking endonuclease (SEQ ID NO: 5) (protein)
chain: MKGETTTEAVDAATAEKVFKQYANDNGVDGEWTYDDATKTFTVTEKPEVIDASELTPAVTTYKLVINGKTLKGETTTEAVDAATAEKVFKQYANDNGVDGEWTYDDATKTFTVTEKPEVIDASELTPAVTTYKLVINGKTLKGETTTKAVDAETAEKAFKQYANDNGVDGVWTYDDATKTFTVTEGSATIVKKPLRPCCEFHCYNLTRERYCEEHRYKEKETQQDKNRYYDRFKRDKESTAFYRSKAWERLREQALMRDKGLCLHCKNNRKIKVADMVDHIIPIKVDPSLKLKLENLQSLCNPCHNRKTAEDKKKYG
With B1, the results for the “amount of fusion enzyme giving complete nicking/digestion of DNA substrate” value in assay [3] and in assay [3] (listed as Protein G-gHNH fusion) were 0.25 units and “greater than 0.06 units”, respectively. Moreover, the “amount of fusion enzyme giving partial digestion of DNA” value in assay [3] (1 μg pBR322, NEBuffer 2 with manganese ions) turned out to be 0.03 units.
